Literature values as cited in patent US9066965B1, “Purified limonin glucoside for prevention and treatment of chronic diseases” (The United States of America, as represented by the …, priority 2012, dated 2015).

Tests used:
[1] = purified flavonoids, hypercholesterolemic men and women; cited from earlier work
TGRS = biological target: T1, TGRS (Homo sapiens, UniProt Q8TDU6); conditions: cited from earlier work
T1 sequence (Q8TDU6 1-330): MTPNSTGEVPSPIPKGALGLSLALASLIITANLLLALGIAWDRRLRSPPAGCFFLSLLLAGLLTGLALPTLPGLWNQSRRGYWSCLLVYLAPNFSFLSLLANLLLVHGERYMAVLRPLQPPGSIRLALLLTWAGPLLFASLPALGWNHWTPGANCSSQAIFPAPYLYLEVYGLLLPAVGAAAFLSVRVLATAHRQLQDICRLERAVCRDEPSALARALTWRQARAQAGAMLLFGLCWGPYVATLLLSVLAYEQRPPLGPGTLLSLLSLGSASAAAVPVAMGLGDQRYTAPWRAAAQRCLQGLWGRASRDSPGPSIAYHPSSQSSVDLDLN

Hep G2 cell line = conditions: cited from earlier work
[2] = 0.2% in diet, mice fed high fat diets; cited from earlier work

| SMILES | effect on serum total- and LDL cholesterol [1] | activation of TGRS (TGRS) | Apo B secretion (Hep G2 cell line) | high fat diet induced obesity and hyperglycemia [2] |
| --- | --- | --- | --- | --- |
| COc1ccc([C@@H]2CC(=O)c3c(O)cc(O[C@@H]4O[C@H](CO[C@@H]5O[C@@H](C)[C@H](O)[C@@H](O)[C@H]5O)[C@@H](O)[C@H](O)[C@H]4O)cc3O2)cc1O [hesperidin] | did not alter |  |  |  |
| CC1(C)O[C@H]2CC(=O)OC[C@]23[C@H]2CC[C@@]4(C)[C@H](c5ccoc5)OC(=O)[C@H]5O[C@]54[C@]2(C)C(=O)C[C@@H]13 [limonin] |  | did not activate | significantly decreased |  |
| C[C@@H]1O[C@@H](O[C@H]2[C@H](Oc3cc(O)c4c(c3)O[C@H](c3ccc(O)cc3)CC4=O)O[C@H](CO)[C@@H](O)[C@@H]2O)[C@H](O)[C@H](O)[C@H]1O [naringin] | did not alter |  |  |  |
| CC(=O)O[C@H]1CC(=O)OC(C)(C)[C@@H]2CC(=O)[C@]3(C)[C@H](CC[C@@]4(C)[C@H](c5ccoc5)OC(=O)[C@H]5O[C@]543)[C@@]12C [nomilin] |  | activating |  | prevented |
